# Assay results reported in ChEMBL document CHEMBL1201862, “PubChem BioAssay data set” (2004).
# Active and inactive are the calls of the source.
# Columns and labels:
# Large T antigen = Large T antigen (Simian virus 40, UniProt P03070); format: functional, Betapolyomavirus macacae;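 further: Confirmatory-stage PubChem screen for compounds that inhibit SV40 T antigen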
# Bcl-2-like protein 10 = target: T1, Bcl-2-like protein 10 (Homo sapiens, UniProt Q9HD36); assay: displacers of TR3 peptide from Bcl-B, primary screen, selectivity assay for Bfl-1 inhibitor project, biochemical, fluorescence polarization, FITC-TR3 peptide (AID 748);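 further: fluorescence polarization from a fluorescein-labelled TR3 peptide binding purified Bcl-B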
# T1 sequence (Q9HD36 whole entry): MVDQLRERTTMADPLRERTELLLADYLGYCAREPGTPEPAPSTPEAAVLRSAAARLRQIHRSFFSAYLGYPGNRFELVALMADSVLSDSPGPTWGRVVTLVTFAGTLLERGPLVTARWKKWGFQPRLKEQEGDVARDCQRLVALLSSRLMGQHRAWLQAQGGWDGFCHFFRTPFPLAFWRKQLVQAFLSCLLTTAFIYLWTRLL
# Leucine aminopeptidase = target: T2, Leucine aminopeptidase (Plasmodium falciparum 3D7, UniProt Q8IL11); assay: P. falciparum M17LAP inhibitors, primary screen, biochemical, fluorogenic H-Leu-NHMec substrate, 1536-well (AID 1619); format: functional
# T2 sequence (Q8IL11 whole entry): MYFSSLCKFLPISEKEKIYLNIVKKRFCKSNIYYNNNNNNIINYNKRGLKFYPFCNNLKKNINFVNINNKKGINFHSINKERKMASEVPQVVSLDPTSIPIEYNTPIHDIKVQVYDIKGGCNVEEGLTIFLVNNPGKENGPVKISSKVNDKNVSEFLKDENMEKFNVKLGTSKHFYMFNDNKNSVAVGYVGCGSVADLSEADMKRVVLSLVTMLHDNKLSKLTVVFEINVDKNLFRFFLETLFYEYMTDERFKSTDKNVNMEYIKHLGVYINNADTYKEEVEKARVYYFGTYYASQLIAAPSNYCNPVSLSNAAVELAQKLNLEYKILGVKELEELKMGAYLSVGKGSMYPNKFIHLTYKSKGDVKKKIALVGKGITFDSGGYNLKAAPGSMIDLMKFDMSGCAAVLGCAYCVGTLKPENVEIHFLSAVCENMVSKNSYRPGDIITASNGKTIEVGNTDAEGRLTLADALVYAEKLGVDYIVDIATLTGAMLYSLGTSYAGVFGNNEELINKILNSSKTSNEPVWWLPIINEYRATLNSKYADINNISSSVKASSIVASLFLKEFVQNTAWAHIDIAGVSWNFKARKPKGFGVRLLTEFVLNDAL
# [1] = target: Intestinal-type alkaline phosphatase (Mus musculus, UniProt P24822); assay: mouse intestinal alkaline phosphatase activators, dose response, biochemical, luminescence, uHTS hits (AID 488783); format: functional
# [2] = target: Intestinal-type alkaline phosphatase (Homo sapiens, UniProt P09923); assay: activation of human intestinal alkaline phosphatase – biochemical, dose response (AID 488873); format: functional
# Estrogen receptor beta = Estrogen receptor beta (Homo sapiens, UniProt Q92731); assay: ERβ–SRC-3 coactivator interaction inhibitors, confirmation, orthogonal assay, biochemical, ELISA, streptavidin-HRP readout (AID 1060)
# [3] = target: Glyceraldehyde-3-phosphate dehydrogenase (Homo sapiens, UniProt P04406)
# [4] = target: T3, Alkaline phosphatase, tissue-nonspecific isozyme (Homo sapiens, UniProt P05186); assay: human TNAP enzyme inhibitors, SAR follow-up, biochemical, luminescent, dose response (AID 1056)
# T3 sequence (P05186 whole entry): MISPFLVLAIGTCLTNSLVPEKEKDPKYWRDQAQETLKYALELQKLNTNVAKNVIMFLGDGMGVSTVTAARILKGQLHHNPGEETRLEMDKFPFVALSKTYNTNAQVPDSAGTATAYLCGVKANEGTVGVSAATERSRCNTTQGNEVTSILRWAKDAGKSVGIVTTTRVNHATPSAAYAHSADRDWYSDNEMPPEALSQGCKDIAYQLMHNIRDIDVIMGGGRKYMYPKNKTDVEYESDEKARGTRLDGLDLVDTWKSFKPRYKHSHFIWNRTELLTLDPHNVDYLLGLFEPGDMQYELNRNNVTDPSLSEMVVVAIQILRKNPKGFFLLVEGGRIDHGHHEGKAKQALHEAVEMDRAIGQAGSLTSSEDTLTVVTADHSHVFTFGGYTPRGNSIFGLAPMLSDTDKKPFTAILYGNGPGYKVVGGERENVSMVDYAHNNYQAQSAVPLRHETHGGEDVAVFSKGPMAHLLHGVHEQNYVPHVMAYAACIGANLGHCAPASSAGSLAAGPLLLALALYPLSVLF
# [5] = target: T3, Alkaline phosphatase, tissue-nonspecific isozyme; assay: TNAP enzyme activators, dose response, selectivity assay for mouse IAP activator project, biochemical, TNAP isozyme, mouse IAP uHTS hits (AID 488880); format: functional
# [6] = target: Alkaline phosphatase, placental type (Homo sapiens, UniProt P05187); assay: PLAP enzyme inhibitors, confirmation, biochemical, luminescence (AID 1512); format: functional
# SUMO-activating enzyme [7] = target: T4, SUMO-activating enzyme (Homo sapiens, UniProt Q9UBT2); assay: inhibitors of in vitro SUMOylation cascade, primary screen, biochemical, HTRF, uHTS (AID 2006); format: protein-complex assay
# SUMO-activating enzyme [8] = target: T4, SUMO-activating enzyme; assay: SUMOylation inhibitor hit validation, confirmation, SUMOylation inhibitor project, biochemical, AlphaScreen (AID 2018); format: functional
# SUMO E1/E2 = SUMO E1/E2 (Homo sapiens, UniProt P63279+Q9UBE0+Q9UBT2); assay: SAR analysis of SUMOylation using HTRF in an in-Vitro dose response assay. [Related pubchem assays (depositor defined):AID2006, AID2011, AID2018, AID2069, AID2658]; format: functional
# [9] = target: T5, Carboxy-terminal domain RNA polymerase II polypeptide A small phosphatase 1 (Homo sapiens, UniProt Q9GZU7); assay: inhibitors of CTDSP1, concentration-response testing, biochemical assay, absorbance-based, actives from ultra-high-throughput screening (AID 540297); format: functional
# T5 sequence (Q9GZU7 whole entry): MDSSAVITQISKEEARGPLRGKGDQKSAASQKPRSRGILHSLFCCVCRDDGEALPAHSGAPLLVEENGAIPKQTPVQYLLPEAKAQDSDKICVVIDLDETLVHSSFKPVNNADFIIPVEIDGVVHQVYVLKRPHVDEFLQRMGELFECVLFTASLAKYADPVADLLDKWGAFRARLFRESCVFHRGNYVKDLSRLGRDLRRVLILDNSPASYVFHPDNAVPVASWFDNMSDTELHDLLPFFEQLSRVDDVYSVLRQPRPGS
# T4 sequence (Q9UBE0 whole entry): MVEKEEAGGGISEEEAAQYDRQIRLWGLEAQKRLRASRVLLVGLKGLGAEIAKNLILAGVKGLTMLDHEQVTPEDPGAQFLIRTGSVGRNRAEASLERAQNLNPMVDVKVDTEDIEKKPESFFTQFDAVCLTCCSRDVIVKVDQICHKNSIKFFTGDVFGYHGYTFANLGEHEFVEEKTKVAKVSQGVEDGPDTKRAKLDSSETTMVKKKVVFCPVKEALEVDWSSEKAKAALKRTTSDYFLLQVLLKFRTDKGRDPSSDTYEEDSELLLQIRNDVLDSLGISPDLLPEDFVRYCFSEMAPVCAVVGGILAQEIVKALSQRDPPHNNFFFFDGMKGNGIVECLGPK
# T4 sequence (Q9UBT2 whole entry): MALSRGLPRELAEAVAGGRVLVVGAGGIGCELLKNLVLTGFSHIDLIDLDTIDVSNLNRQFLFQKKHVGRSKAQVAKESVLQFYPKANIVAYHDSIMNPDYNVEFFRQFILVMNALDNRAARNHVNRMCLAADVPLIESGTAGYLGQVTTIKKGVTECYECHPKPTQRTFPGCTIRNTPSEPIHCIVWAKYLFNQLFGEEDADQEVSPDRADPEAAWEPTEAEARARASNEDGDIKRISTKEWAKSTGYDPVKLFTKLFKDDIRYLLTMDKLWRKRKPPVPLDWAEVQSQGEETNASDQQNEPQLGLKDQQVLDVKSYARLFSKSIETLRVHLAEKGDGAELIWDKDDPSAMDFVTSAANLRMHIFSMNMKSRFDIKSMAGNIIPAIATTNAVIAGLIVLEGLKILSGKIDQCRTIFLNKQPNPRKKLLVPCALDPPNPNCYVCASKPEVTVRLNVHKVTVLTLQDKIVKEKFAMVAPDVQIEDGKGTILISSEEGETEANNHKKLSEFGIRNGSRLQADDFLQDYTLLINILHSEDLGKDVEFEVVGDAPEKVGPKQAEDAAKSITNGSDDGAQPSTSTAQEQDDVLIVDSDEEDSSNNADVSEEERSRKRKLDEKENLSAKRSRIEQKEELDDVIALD
# Sequence of Estrogen receptor beta (Q92731 whole entry): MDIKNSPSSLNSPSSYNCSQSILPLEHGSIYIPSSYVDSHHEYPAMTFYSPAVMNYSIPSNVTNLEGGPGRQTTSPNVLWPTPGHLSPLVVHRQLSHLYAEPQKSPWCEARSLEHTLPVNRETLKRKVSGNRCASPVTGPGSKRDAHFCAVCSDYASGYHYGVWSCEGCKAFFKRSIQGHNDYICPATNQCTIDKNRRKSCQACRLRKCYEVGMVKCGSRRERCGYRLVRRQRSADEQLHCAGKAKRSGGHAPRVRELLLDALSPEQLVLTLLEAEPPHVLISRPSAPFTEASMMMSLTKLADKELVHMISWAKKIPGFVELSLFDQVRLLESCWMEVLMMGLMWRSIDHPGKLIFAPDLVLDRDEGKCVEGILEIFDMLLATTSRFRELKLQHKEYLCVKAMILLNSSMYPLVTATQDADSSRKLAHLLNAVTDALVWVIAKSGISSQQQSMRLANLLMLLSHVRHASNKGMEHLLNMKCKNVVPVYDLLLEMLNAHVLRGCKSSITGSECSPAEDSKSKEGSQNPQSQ
# Sequence of Glyceraldehyde-3-phosphate dehydrogenase (P04406 whole entry): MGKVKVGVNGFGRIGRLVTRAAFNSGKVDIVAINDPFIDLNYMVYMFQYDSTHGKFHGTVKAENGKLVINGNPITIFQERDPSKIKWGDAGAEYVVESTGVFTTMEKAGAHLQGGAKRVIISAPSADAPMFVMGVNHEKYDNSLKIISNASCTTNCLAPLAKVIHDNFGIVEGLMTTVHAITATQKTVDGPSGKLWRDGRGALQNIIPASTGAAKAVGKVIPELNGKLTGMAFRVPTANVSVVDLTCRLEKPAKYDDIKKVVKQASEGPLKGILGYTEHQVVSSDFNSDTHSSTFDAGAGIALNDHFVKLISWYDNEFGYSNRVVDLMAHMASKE
# Sequence of SUMO E1/E2 (Q9UBE0 whole entry, the tested form may be a part): as the sequence (Q9UBE0 whole entry) above
# Sequence of SUMO E1/E2 (Q9UBT2 whole entry, the tested form may be a part): as the sequence (Q9UBT2 whole entry) above
# Sequence of SUMO E1/E2 (P63279 whole entry, the tested form may be a part): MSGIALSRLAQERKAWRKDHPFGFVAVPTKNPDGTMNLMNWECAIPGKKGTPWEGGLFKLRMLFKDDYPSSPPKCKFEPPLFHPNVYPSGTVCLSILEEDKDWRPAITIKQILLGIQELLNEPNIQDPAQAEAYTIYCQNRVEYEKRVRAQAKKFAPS
# Sequence of Alkaline phosphatase, placental type (P05187 whole entry): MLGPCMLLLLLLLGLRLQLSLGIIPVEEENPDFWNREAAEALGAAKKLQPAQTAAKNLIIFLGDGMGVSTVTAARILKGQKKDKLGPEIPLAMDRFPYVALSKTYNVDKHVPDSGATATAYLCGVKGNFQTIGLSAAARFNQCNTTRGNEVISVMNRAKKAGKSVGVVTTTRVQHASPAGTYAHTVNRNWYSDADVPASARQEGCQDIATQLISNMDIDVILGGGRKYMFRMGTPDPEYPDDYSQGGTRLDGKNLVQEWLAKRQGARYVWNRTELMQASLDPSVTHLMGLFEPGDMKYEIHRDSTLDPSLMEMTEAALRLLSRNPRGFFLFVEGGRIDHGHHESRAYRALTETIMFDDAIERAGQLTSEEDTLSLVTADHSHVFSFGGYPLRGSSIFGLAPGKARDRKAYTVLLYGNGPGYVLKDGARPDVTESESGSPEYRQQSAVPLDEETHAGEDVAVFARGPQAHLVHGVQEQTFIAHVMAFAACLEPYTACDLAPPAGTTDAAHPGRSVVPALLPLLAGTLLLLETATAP
# Sequence of Intestinal-type alkaline phosphatase (Mus musculus, UniProt P24822) (P24822 whole entry): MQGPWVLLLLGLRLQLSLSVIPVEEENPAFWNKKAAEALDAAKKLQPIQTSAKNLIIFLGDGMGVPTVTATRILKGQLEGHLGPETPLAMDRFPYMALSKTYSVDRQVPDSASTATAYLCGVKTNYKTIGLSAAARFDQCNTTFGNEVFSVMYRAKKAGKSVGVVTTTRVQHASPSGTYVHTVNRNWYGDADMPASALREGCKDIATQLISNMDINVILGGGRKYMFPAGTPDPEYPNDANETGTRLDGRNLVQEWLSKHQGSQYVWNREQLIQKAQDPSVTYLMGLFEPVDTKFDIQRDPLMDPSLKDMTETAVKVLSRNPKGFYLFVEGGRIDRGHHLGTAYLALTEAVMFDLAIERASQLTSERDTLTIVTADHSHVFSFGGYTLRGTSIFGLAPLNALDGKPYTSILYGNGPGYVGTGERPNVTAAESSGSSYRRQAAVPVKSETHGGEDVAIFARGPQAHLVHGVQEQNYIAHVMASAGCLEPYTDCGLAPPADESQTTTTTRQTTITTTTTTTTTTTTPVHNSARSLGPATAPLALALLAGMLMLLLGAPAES
# Sequence of Intestinal-type alkaline phosphatase (Homo sapiens, UniProt P09923) (P09923 whole entry): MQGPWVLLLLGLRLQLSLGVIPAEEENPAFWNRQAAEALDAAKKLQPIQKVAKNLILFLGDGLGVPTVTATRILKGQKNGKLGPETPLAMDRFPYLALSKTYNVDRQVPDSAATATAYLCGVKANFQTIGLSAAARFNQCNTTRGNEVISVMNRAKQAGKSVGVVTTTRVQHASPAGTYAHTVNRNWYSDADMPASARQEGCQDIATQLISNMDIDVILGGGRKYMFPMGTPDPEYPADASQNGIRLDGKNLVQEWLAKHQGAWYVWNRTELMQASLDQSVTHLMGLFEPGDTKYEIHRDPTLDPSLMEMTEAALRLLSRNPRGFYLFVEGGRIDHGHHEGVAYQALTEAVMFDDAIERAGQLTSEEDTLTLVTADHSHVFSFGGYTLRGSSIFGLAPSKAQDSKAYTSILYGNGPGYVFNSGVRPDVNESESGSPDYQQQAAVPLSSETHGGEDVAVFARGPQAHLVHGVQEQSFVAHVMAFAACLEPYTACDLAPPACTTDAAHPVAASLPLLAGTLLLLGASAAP
# Sequence of Large T antigen (P03070 whole entry): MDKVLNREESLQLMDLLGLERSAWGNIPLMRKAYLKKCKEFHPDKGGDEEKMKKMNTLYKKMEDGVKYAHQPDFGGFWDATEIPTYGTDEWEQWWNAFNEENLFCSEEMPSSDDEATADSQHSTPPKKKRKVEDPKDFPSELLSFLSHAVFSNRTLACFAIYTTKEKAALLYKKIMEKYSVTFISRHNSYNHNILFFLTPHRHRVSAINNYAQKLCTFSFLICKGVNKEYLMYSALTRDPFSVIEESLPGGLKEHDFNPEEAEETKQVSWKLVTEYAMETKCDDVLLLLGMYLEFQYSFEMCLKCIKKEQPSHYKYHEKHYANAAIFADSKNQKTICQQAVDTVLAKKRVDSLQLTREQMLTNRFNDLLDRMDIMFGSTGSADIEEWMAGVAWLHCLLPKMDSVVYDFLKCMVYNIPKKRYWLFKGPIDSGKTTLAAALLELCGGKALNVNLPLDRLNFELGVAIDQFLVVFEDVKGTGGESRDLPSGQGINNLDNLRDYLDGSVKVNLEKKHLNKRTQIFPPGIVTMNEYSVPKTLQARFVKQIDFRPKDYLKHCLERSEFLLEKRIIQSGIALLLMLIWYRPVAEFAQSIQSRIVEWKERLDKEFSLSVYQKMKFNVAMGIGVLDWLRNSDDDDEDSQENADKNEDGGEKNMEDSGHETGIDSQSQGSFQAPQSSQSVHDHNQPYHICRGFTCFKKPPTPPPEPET
SMILES,IC50 (Large T antigen),IC50 (Bcl-2-like protein 10),IC50 (Leucine aminopeptidase),EC50 [1],EC50 [2],IC50 (Estrogen receptor beta),IC50 [3],IC50 [4],EC50 [5],IC50 [6],IC50 (SUMO-activating enzyme [7]),IC50 (SUMO-activating enzyme [8]),IC50 (SUMO E1/E2),IC50 [9]
O=C(CSc1nnc(-c2ccccc2)[nH]1)c1ccc(O)c(O)c1,15.2 µM (active),31.5 µM (active),8.31 µM (active),63.4 µM (active),42.4 µM (active),15.6 µM (not active),> 100 µM (not active),5.9 µM (active),36.4 µM (active),11.4 µM (active),–,–,–,–
O=C(N=Nc1c(O)[nH]c2ccc([N+](=O)[O-])cc12)c1ccccc1Cl,–,–,–,–,–,–,–,–,–,–,20.4 µM (active),7.02 µM (active),94.4 µM (active),6.44 µM (active)
